Results published in patent US6617319B2, “Methods of use for 2-deoxy ecdysterone” (Council of Science and Industrial Research, priority 2000, dated 2003).
Where “and” joins values, the source holds several entries; their conditions need not be identical. Equal values may be shown once.

Experiments:
guinea pig uterus = format: cell-based
Excerpt: A female virgin guinea pig that was in oestrous and weighing around 400-500 gm was used for the test. The animal was killed by a stunning blow on the head. The abdomen was immediately cut open. The uterus was dissected out and placed in a petri plate containing aerated De Jalon's solution (M. N Ghosh, in fundamentals of Experimental Pharmacology, 1984, second edition, Scientific book agency, Calcutta). The uterus was freed from fat and the two uterine horns were separated by cutting the lower end. Only one horn was used for the experiment. Two small loops of thread were made at each end of the uterus and kept in a tissue bath of 10 ml capacity containing aerated De Jalon's solution. The lower end was tied to the tissue holder and the upper end to the writing lever. The lever was balanced to provide a tension of 1 g with plasticene. The tissue was left in the bath for ½ hr for stabilisation before starting the experiment and the physiological solution (De Jalon's solution) was renewed every 10 minutes. This example illustrates the procedure used for the preparation of the guinea pig uterus for testing the oxytocic property of the pure white solid, 2-deoxy ecdysterone.
After stabilisation, 2-3 doses of oxytocin (Parke Davis Ltd, Hyderabad) were added as standard to the physiological solution, the dose depending on the amplitude of contraction to obtain uniform contractions. The extract was then added to the bath (50 & 250 μg/ml) and allowed to act for one minute. If a contraction was observed during that one-minute period, extract was considered to be oxytocin-like and having oxytocic property. After every contraction, the tissue was immediately washed twice with the physiological solution and relaxed for 10 minutes. The same procedure was followed for the crude extract, fractions and the purified white solid, identified as 2-deoxy ecdysterone.
The oxytocic activity of the crude, fractions and the pure compound was tested on the guinea pig uterus based on its ability to contract the relaxed uterus. The tissue was spiked with a standard oxytocic agent which induces contraction of the tissue. The efficacy of the testing agent was measured by its ability to contract the uterus by comparing the height of contraction with the standard oxytocin (Table 1). This example illustrates the procedure used for testing the crude extract and the detailed procedure followed.

[1] = radiolabelled compound injected into human volunteers; within 5 hours; cited from earlier work

Compound	% response compared to standard PGF2α (guinea pig uterus)	% response compared to standard oxytocin (guinea pig uterus)	Inducing contractions in the guinea pig uterus (guinea pig uterus)	Potency compared with standard oxytocin and PGF2α (guinea pig uterus)	Radioactivity excreted in the urine [1]
2-deoxy ecdysterone	69.4% and 82.3% and 114.1%	80.8% and 92.3% and 118.0%	effective	more potent than the standard oxytocin and PGF2α	
CCCCC[C@H](O)/C=C/[C@H]1[C@H](O)CC(=O)[C@@H]1C/C=C\CCCC(=O)O [PGE2]					about 50%
CCCCC[C@H](O)/C=C/[C@@H]1[C@@H](C/C=C\CCCC(=O)O)[C@@H](O)C[C@H]1O [PGF2α]					around 90%
